Tests used:
[1] = system: Epidermal growth factor receptor (Homo sapiens), P00533 [G719C]
[2] = target: Vascular endothelial growth factor receptor 3 (Homo sapiens) (UniProt P35916)
[3] = target: Muscle, skeletal receptor tyrosine-protein kinase (Homo sapiens) (UniProt O15146)
[4] = target: Ephrin type-A receptor 7 (Homo sapiens) (UniProt Q15375)
[5] = target: Mitogen-activated protein kinase kinase kinase 6 (Homo sapiens) (UniProt O95382)
[6] = target: Cyclin-dependent kinase 2 (Homo sapiens) (UniProt P24941)
[7] = target: Cyclin-dependent kinase-like 3 (Homo sapiens) (UniProt Q8IVW4)
Chain of Cyclin-dependent kinase-like 3 (Homo sapiens) (Q8IVW4 whole entry, looked up): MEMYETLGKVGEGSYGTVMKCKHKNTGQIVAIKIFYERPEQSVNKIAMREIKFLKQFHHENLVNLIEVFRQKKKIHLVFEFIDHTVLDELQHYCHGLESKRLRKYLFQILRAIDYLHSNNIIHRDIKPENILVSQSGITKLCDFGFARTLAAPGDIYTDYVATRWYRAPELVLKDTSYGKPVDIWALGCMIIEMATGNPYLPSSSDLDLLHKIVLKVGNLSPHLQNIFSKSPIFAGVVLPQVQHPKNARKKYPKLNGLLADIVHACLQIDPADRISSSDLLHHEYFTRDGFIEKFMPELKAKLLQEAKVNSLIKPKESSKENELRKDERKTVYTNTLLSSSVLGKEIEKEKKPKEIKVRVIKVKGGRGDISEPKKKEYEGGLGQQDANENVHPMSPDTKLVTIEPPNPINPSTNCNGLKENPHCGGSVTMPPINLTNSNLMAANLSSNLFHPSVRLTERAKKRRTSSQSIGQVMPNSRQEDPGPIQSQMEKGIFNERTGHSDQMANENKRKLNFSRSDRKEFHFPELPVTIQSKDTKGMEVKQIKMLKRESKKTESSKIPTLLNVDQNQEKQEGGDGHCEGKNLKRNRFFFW

[8] = target: Serine/threonine-protein kinase 17A (Homo sapiens) (UniProt Q9UEE5)
[9] = target: Cyclin-dependent kinase 5 (Homo sapiens) (UniProt Q00535)
[10] = target: Cyclin-dependent kinase 8 (Homo sapiens) (UniProt P49336)
[11] = target: Cyclin-dependent kinase 15 (Homo sapiens) (UniProt Q96Q40)
[12] = target: Serine/threonine-protein kinase Chk1 (Homo sapiens) (UniProt O14757)
[13] = target: Atypical kinase COQ8A, mitochondrial (Homo sapiens) (UniProt Q8NI60)
[14] = target: Tyrosine-protein kinase Fes/Fps (Homo sapiens) (UniProt P07332)
[15] = system: Tyrosine-protein kinase ABL1 (Homo sapiens), P00519 [H396P]
[16] = target: Tyrosine-protein kinase receptor TYRO3 (Homo sapiens) (UniProt Q06418)
[17] = target: Mitotic checkpoint serine/threonine-protein kinase BUB1 (Homo sapiens) (UniProt O43683)
[18] = target: Tyrosine-protein kinase Tec (Homo sapiens) (UniProt P42680)
[19] = target: Glycogen synthase kinase-3 beta (Homo sapiens) (UniProt P49841)
[20] = target: Casein kinase II subunit alpha (Homo sapiens) (UniProt P68400)
[21] = target: Serine/threonine-protein kinase N2 (Homo sapiens) (UniProt Q16513)
[22] = system: Phosphatidylinositol 4,5-bisphosphate 3-kinase catalytic subunit alpha isoform (Homo sapiens), P42336 [E545A]
[23] = target: Dual specificity protein kinase CLK2 (Homo sapiens) (UniProt P49760)
[24] = target: Mitogen-activated protein kinase 7 (Homo sapiens) (UniProt Q13164)
[25] = target: Maternal embryonic leucine zipper kinase (Homo sapiens) (UniProt Q14680)
[26] = target: Fibroblast growth factor receptor 1 (Homo sapiens) (UniProt P11362)
[27] = target: Activin receptor type-1B (Homo sapiens) (UniProt P36896)
[28] = target: Insulin receptor-related protein (Homo sapiens) (UniProt P14616)
[29] = target: Phosphatidylinositol 5-phosphate 4-kinase type-2 beta (Homo sapiens) (UniProt P78356)
[30] = system: ALK tyrosine kinase receptor (Homo sapiens), Q9UM73 [L1196M]
[31] = target: Interferon-induced, double-stranded RNA-activated protein kinase (Homo sapiens) (UniProt P19525)
[32] = target: Mitogen-activated protein kinase kinase kinase kinase 4 (Homo sapiens) (UniProt O95819)
Chain of Mitogen-activated protein kinase kinase kinase kinase 4 (Homo sapiens) (O95819 2-1239 limits assumed): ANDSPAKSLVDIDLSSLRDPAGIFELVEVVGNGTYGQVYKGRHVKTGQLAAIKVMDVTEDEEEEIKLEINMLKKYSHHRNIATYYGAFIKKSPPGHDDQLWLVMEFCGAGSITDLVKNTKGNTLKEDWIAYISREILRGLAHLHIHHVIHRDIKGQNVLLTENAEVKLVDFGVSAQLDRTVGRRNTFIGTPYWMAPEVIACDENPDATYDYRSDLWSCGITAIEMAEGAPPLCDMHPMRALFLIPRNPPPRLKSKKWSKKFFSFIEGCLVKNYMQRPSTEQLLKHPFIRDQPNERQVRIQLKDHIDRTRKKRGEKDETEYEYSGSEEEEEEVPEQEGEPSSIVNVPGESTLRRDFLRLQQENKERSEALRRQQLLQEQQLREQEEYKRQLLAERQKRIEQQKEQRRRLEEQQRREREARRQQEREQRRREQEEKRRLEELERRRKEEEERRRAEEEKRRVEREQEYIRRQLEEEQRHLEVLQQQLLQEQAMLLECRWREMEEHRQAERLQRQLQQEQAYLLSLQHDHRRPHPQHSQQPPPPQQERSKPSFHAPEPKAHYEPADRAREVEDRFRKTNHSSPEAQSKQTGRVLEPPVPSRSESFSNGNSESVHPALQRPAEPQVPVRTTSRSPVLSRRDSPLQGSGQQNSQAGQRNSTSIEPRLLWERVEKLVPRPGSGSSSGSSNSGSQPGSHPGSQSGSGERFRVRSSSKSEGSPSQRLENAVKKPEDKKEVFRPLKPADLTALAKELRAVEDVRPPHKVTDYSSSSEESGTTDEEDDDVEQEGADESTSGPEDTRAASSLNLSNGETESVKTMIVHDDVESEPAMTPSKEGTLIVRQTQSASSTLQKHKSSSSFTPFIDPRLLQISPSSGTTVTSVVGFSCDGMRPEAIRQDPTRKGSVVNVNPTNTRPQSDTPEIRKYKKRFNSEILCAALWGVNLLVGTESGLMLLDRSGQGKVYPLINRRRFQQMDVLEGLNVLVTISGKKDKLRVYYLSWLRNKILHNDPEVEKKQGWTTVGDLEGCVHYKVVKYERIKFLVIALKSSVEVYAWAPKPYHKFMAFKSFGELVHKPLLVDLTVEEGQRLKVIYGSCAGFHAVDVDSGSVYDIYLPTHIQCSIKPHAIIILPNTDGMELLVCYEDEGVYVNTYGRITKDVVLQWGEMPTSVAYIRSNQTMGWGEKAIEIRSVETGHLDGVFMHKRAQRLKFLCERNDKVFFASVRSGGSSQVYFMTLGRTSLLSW

[33] = target: Phosphatidylinositol 4,5-bisphosphate 3-kinase catalytic subunit delta isoform (Homo sapiens) (UniProt O00329)
[34] = target: Serine/threonine-protein kinase ICK (Homo sapiens) (UniProt Q9UPZ9)
[35] = target: Serine/threonine-protein kinase STK11 (Homo sapiens) (UniProt Q15831)
Chain of Serine/threonine-protein kinase STK11 (Homo sapiens) (Q15831 whole entry): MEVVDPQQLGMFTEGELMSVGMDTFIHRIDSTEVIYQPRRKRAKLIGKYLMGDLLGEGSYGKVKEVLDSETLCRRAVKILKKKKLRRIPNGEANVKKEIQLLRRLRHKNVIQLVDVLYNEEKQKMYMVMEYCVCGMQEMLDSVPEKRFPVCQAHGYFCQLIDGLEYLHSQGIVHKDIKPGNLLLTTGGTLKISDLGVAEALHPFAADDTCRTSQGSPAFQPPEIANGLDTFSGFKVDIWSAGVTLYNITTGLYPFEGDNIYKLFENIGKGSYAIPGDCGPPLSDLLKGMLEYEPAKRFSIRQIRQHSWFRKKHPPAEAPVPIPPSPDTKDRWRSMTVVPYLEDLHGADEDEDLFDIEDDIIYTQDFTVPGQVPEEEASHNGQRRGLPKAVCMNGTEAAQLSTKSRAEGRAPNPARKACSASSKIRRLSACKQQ

[36] = system: Epidermal growth factor receptor (Homo sapiens), P00533 [UNDEFINED MUTATION]
[37] = target: Epithelial discoidin domain-containing receptor 1 (Homo sapiens) (UniProt Q08345)
[38] = target: Serine/threonine-protein kinase PAK 2 (Homo sapiens) (UniProt Q13177)
Chain of Serine/threonine-protein kinase PAK 2 (Homo sapiens) (Q13177 whole entry): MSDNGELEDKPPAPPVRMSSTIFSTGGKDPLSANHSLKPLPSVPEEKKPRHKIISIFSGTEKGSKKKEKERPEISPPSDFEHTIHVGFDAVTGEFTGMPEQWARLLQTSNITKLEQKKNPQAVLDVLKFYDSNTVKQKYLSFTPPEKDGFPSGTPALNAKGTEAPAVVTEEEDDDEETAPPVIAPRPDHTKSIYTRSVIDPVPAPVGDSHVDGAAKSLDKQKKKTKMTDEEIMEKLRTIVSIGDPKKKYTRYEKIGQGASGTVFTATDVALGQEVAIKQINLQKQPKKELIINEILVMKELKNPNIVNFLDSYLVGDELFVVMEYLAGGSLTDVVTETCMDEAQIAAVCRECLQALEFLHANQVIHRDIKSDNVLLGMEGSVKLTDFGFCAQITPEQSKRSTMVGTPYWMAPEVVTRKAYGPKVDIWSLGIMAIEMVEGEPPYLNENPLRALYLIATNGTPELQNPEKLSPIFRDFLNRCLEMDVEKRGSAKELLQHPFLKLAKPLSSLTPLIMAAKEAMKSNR

[39] = target: 5-hydroxytryptamine receptor 2B (Homo sapiens, UniProt P41595); settings: Compound concentration 10.0 uM
[40] = target: Uncharacterized serine/threonine-protein kinase SBK3 (Homo sapiens) (UniProt P0C264)
[41] = target: Misshapen-like kinase 1 (Homo sapiens) (UniProt Q8N4C8)
Chain of Misshapen-like kinase 1 (Homo sapiens) (Q8N4C8 whole entry, looked up): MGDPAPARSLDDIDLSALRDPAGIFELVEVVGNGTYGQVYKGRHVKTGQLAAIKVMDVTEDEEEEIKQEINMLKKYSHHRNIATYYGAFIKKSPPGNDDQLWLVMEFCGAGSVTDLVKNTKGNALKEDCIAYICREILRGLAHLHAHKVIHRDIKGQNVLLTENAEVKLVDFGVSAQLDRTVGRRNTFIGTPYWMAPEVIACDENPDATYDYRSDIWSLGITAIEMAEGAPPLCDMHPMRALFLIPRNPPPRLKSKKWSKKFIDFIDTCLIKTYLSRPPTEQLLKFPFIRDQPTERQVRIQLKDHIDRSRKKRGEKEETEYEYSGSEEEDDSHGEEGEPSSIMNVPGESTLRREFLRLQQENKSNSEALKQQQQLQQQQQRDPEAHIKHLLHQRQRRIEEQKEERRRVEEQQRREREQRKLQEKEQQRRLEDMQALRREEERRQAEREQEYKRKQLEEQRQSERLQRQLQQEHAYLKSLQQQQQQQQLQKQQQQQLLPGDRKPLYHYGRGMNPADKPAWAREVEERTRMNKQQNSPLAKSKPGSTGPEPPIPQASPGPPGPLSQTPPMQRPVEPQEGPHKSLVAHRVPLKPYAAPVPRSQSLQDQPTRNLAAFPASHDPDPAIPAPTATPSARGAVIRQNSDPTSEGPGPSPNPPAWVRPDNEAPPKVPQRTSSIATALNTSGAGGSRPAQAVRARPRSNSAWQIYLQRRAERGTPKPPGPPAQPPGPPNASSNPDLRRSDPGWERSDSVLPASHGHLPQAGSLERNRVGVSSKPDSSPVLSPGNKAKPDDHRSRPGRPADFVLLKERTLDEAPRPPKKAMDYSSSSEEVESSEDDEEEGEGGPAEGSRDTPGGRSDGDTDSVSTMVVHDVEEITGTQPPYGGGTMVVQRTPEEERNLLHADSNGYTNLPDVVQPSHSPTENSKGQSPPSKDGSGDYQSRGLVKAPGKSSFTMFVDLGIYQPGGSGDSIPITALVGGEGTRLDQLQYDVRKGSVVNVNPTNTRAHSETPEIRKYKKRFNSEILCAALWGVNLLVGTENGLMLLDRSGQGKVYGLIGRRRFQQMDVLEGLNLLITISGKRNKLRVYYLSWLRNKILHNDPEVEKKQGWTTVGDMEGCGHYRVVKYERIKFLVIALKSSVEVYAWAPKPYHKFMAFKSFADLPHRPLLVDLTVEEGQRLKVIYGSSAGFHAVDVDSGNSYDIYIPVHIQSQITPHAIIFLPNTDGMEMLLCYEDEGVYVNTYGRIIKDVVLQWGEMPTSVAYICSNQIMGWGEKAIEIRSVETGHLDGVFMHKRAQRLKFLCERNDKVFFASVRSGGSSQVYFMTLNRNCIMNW

[42] = target: Ribosomal protein S6 kinase alpha-3 (Homo sapiens) (UniProt P51812)
[43] = target: Calcium/calmodulin-dependent protein kinase type II subunit delta (Homo sapiens) (UniProt Q13557)
[44] = target: Ephrin type-A receptor 6 (Homo sapiens) (UniProt Q9UF33)
[45] = target: Serine/threonine-protein kinase/endoribonuclease IRE1 (Homo sapiens) (UniProt O75460)
Chain of Serine/threonine-protein kinase/endoribonuclease IRE1 (Homo sapiens) (O75460 19-977 limits assumed): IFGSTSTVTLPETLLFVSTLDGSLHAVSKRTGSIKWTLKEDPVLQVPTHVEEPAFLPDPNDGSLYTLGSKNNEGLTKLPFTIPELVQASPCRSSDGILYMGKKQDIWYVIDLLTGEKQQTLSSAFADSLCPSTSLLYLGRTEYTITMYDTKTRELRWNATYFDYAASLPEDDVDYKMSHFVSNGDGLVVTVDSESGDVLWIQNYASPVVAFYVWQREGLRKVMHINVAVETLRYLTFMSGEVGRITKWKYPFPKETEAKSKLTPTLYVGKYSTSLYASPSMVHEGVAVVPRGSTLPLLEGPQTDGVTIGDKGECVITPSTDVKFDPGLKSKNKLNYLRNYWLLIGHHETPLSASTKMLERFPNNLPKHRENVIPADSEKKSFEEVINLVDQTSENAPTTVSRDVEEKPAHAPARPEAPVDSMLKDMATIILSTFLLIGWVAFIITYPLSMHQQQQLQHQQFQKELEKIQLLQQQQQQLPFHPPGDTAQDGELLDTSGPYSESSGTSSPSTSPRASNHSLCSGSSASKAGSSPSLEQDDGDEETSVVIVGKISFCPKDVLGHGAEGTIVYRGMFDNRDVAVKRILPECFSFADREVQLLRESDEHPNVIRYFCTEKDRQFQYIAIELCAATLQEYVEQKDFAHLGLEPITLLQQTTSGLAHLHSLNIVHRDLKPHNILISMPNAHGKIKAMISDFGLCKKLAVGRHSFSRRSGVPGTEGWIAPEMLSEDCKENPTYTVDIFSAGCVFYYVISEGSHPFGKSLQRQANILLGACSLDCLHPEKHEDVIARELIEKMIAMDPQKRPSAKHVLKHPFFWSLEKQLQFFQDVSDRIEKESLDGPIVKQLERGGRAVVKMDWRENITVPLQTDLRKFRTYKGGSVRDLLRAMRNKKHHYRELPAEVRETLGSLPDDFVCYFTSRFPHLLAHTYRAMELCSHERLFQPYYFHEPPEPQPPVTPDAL

[46] = Compound concentration 1000.0 nM
[47] = Compound concentration 100.0 nM

## CN(C)c1ncnc(-c2ccc3nc(Nc4cc(CN5CCN(C(=O)CC(F)(F)F)CC5)ccn4)[nH]c3c2)c1Cl [BAY-440]
[1]; [46]
  residual activity: 88%
[2]; [46]
  residual activity: 63%
[3]; [46]
  residual activity: 100%
[4]; [46]
  residual activity: 100%
[5]; [46]
  residual activity: 87%
[6]; [46]
  residual activity: 100%
[7]; [46]
  residual activity: 86%
[8]; [46]
  residual activity: 34%
[9]; [46]
  residual activity: 100%
[10]; [46]
  residual activity: 90%
[11]; [46]
  residual activity: 100%
[12]; [46]
  residual activity: 97%
[13]; [46]
  residual activity: 100%
[14]; [46]
  residual activity: 100%
[15]; [46]
  residual activity: 4.2%
[16]; [46]
  residual activity: 100%
[17]; [46]
  residual activity: 94%
[18]; [46]
  residual activity: 100%
[19]; [46]
  residual activity: 100%
[20]; [46]
  residual activity: 80%
[21]; [46]
  residual activity: 85%
[22]; [46]
  residual activity: 100%
[23]; [46]
  residual activity: 90%
[24]; [46]
  residual activity: 91%
[25]; [46]
  residual activity: 95%
[26]; [46]
  residual activity: 100%
[27]; [46]
  residual activity: 91%
[28]; [46]
  residual activity: 95%
[29]; [46]
  residual activity: 52%
[30]; [46]
  residual activity: 79%
[31]; [46]
  residual activity: 100%
[32]; [46]
  residual activity: 100%
[33]; [46]
  residual activity: 67%
[34]; [46]
  residual activity: 100%
[35]; [46]
  residual activity: 99%
[36]; [46]
  residual activity: 100%
[37]; [46]
  residual activity: 75%
[38]; [46]
  residual activity: 100%
[39]
  inhibition: 39%
[40]; [46]
  residual activity: 100%
[41]; [46]
  residual activity: 57%
[42]; [46]
  residual activity: 81%
[43]; [46]
  residual activity: 90%
[44]; [46]
  residual activity: 100%
[45]; [46]
  residual activity: 62%

## C[C@H](c1ccnc(Nc2nc3ccc(-c4cc(N(C)C)ncn4)cc3[nH]2)c1)N1CCN(C(=O)CC(F)(F)F)CC1 [BAY-985]
[1]; [47]
  residual activity: 84%
[2]; [47]
  residual activity: 92%
[3]; [47]
  residual activity: 97%
[4]; [47]
  residual activity: 100%
[5]; [47]
  residual activity: 100%
[6]; [47]
  residual activity: 100%
[7]; [47]
  residual activity: 86%
[8]; [47]
  residual activity: 40%
[9]; [47]
  residual activity: 86%
[10]; [47]
  residual activity: 96%
[11]; [47]
  residual activity: 100%
[12]; [47]
  residual activity: 87%
[13]; [47]
  residual activity: 100%
[14]; [47]
  residual activity: 75%
[15]; [47]
  residual activity: 79%
[16]; [47]
  residual activity: 96%
[17]; [47]
  residual activity: 95%
[18]; [47]
  residual activity: 100%
[19]; [47]
  residual activity: 100%
[20]; [47]
  residual activity: 100%
[21]; [47]
  residual activity: 95%
[22]; [47]
  residual activity: 100%
[23]; [47]
  residual activity: 65%
[24]; [47]
  residual activity: 100%
[25]; [47]
  residual activity: 100%
[26]; [47]
  residual activity: 100%
[27]; [47]
  residual activity: 94%
[28]; [47]
  residual activity: 100%
[29]; [47]
  residual activity: 75%
[30]; [47]
  residual activity: 100%
[31]; [47]
  residual activity: 100%
[32]; [47]
  residual activity: 91%
[33]; [47]
  residual activity: 100%
[34]; [47]
  residual activity: 88%
[35]; [47]
  residual activity: 100%
[36]; [47]
  residual activity: 69%
[37]; [47]
  residual activity: 100%
[38]; [47]
  residual activity: 68%
[39]
  inhibition: 60%
[40]; [47]
  residual activity: 100%
[41]; [47]
  residual activity: 94%
[42]; [47]
  residual activity: 100%
[43]; [47]
  residual activity: 70%
[44]; [47]
  residual activity: 93%
[45]; [47]
  residual activity: 86%
